Experimental data reported in PMC10631261 (Chemical Science, 2023).
Several values for one entry are separate records, joined by “and”; a condition that tells them apart may be missing. Equal values may be shown once. Read-outs that look alike come from different tables or passages of the source.

Experiments:
FIH = biological target: T1, FIH (Homo sapiens, UniProt Q9NWT6); assay: SPE-MS FIH inhibition assay; format: biochemical; conditions: for reduction of FIH inhibition compared to 4: IC50 comparison with compound 4
T1 construct: made in house
Protocol: (§1) Protein production and purification
(§2) PAGE analysis) according to established procedures.
(§3) FIH, PHD2, AspH, JMJD5 and KDM4A inhibition assays
(§4) The in vitro FIH,1, 2 PHD2,1 AspH,38 JMJD536 and KDM4A39 inhibition assays were performed as […]
(§5) KDM4A). Synthetic peptide substrates were used: HIF-1α C-terminal transactivation domain fragment […]
(§6) H3Lys9 bearing three methyl groups at the N ϵ position, H3Lys4 substituted by an Ala and H3Lys14 substituted by an Ile residue) for KDM4A.39 Peptides were prepared as C-terminal amides by GL Biochem (Shanghai) Ltd. Peptide hydroxylation in the case of FIH, PHD2, AspH and JMJD5 (+16 Da mass shift) or peptide demethylation in the case of KDM4A ( -14 Da mass shift) was monitored by SPE-MS. […]

KDM4A = KDM4A (Homo sapiens, UniProt O75164); assay: biochemical; format: biochemical
Description: (§7) To investigate the potential of BNS for selective FIH inhibition, its selectivity was investigated with respect to other 2OG-dependent protein oxidising enzymes, that is PHD2, Jumonji-C domain-containing protein 5 (JMJD5), aspartate/asparagine-β-hydroxylase (AspH) and KDM4A, using reported SPE-MS inhibition assays.[58,61,69,70] In addition to PHD2 and KDM4A, we included AspH and JMJD5 in our selectivity studies, because AspH, like FIH, catalyses protein aspartate- and asparagine-residue hydroxylation (although in epidermal growth factor-like domains),[71,72] and because JMJD5 is structurally closely related to FIH.[73,74]
(§8) 3. Biochemical procedures
as §1, §2, §3, §4, §5, §6

PHD2 = PHD2 (Homo sapiens, UniProt Q9GZT9); assay: biochemical
Protocol: as §8, §1, §2, §3, §4, §5, §6

AspH = AspH (Homo sapiens, UniProt Q12797); assay: biochemical
Description: as §7, §8, §1, §2, §3, §4, §5, §6

JMJD5 = JMJD5 (Homo sapiens, UniProt Q8N371); assay: biochemical
Description: as §7, §8, §1, §2, §3, §4, §5, §6

[1] = 0.15 μM FIH, 10.0 μM 2OG, 5.0 μM HIF-1α C-TAD788–822, SPE-MS, read-out: FIH IC50

Chain of JMJD5 (Q8N371 whole entry): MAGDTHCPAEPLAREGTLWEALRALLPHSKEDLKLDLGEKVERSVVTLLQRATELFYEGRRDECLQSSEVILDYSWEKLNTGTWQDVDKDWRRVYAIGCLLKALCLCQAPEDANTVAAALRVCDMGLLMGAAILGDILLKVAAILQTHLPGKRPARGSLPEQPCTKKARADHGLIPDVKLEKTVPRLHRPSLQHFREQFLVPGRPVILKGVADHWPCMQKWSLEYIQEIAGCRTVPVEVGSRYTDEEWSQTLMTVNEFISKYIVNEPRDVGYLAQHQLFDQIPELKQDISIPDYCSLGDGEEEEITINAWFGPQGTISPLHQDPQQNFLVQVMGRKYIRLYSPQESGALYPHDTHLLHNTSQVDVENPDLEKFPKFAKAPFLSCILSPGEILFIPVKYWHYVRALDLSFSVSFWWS
Chain of KDM4A (O75164 1-359): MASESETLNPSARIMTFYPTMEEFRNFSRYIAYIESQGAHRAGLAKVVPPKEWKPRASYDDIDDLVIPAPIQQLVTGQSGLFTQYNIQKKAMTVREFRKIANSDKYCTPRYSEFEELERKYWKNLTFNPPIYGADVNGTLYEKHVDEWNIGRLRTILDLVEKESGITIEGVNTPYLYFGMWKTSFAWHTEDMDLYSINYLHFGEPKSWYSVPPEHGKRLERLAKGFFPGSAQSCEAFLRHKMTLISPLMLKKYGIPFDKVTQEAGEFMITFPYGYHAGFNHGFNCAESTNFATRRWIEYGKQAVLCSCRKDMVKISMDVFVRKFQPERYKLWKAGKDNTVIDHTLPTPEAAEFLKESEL
Chain of PHD2 (Q9GZT9 181-426): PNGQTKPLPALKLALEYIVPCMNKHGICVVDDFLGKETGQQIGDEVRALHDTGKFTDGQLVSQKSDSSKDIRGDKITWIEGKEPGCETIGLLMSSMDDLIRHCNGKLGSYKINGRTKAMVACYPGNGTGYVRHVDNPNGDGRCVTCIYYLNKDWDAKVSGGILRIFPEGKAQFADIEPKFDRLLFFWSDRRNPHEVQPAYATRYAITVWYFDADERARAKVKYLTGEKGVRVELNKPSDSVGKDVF
T1 sequence (Q9NWT6 whole entry): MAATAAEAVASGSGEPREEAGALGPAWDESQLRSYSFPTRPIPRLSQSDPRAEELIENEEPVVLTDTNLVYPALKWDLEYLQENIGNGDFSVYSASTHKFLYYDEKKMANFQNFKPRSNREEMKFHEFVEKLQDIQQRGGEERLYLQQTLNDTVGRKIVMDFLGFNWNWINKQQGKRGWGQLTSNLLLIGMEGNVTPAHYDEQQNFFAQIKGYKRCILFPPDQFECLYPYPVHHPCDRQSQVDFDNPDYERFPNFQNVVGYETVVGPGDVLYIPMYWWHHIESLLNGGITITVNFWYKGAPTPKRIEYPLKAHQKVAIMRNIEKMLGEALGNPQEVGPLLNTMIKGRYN
Chain of AspH (Q12797 315-758): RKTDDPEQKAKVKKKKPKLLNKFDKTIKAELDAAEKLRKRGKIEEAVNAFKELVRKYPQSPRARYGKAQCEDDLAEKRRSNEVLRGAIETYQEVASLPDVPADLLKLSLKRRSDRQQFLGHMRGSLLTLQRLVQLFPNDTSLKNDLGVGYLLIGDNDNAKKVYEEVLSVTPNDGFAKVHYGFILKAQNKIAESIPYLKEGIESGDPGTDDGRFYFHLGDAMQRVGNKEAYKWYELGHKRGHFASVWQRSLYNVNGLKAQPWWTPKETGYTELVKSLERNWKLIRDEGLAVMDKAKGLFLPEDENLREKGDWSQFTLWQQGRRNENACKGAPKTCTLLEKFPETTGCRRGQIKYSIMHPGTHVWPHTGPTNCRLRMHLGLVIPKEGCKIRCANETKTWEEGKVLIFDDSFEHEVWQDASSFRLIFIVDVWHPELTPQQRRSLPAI

SMILES	IC50 (FIH) [µM]	IC50 (KDM4A) [µM]	IC50 (PHD2) [µM]	IC50 (AspH)	IC50 (JMJD5; read-out: JMJD5 IC50) [µM]	further results
O=C(O)Cc1cs/c(=N\C(=O)CNC(=O)c2ccccc2)n1O (hydrate or solvate) [compound 16]	–	–	–	–	–	melting point: 181 to 183 °C
O=C(O)CNC(=O)C1=C(O)CCN(Cc2ccc(Oc3ccc(Cl)cc3)nc2)C1=O [TP0463518, reference compound]	–	–	–	–	–	IC50 (FIH; [1]): 39.7 ± 0.6 µM
O=C(O)Cc1csc(=NC(=O)C2CCN(S(=O)(=O)c3ccc(C(F)(F)F)cc3)C2)n1O (stereo not drawn) (hydrate or solvate) [compound 37]	–	–	–	–	–	melting point: 183 to 185 °C
O=C(O)Cc1csc(=NC(=O)C2CCN(S(=O)(=O)c3ccc4ccccc4c3)C2)n1O (stereo not drawn) (hydrate or solvate) [compound 40]	–	–	–	–	–	melting point: 181 to 184 °C
O=C(O)CNC(=O)c1c(O)cc(CCc2ccccc2)n2ncnc12 [Enarodustat, reference compound]	> 100	–	–	–	–	–
O=C(O)Cc1cs/c(=N\C(=O)CCS(=O)(=O)c2ccccc2)n1O [compound 15]	0.3 ± 0.05	> 100	2.7 ± 0.2	33 ± 12.1 µM	3.3 ± 1.5	–
CC1(C(=O)/N=c2\scc(CC(=O)O)n2O)CCN(S(=O)(=O)c2ccccc2)C1 (stereo not drawn) [compound 29]	> 100	> 100	> 100	> 100 µM	> 100	–
O=C(O)Cc1cs/c(=N\C(=O)CS(=O)(=O)c2ccccc2)n1O [compound 4]	0.28	> 100	–	9.6 ± 1.3 µM	0.48 ± 0.01	–
COc1ccc(S(=O)(=O)N2CCC(C(=O)N=c3scc(CC(=O)O)n3O)C2)cc1 (stereo not drawn) (hydrate or solvate) [compound 36]	–	–	–	–	–	melting point: 180 to 183 °C
O=C(O)CNC(=O)c1c(O)c2ccccc2n(OCC2CC2)c1=O [Desidustat, reference compound]	41.4 ± 1.1	–	–	–	–	–
O=C(O)Cc1cs/c(=N\C(=O)CCC(=O)Nc2ccccc2)n1O [compound 18]	6 ± 1.2	> 100	2.3 ± 0.1	3.7 ± 1.5 µM	8.4 ± 2.7	–
O=C(O)CCc1cs/c(=N\C(=O)CS(=O)(=O)c2ccccc2)n1O (hydrate or solvate) [compound 13]	–	–	–	–	–	melting point: 173 to 176 °C
CNC(=O)Cc1cs/c(=N\C(=O)CS(=O)(=O)c2ccccc2)n1O [compound 10]	> 100	> 100	> 100	43.6 ± 3.7 µM	77.5 ± 23.8	–
O=C(O)Cc1csc(=NC(=O)C2CCN(S(=O)(=O)c3ccccc3Cl)C2)n1O (stereo not drawn) [compound 33]	0.39 ± 0.04	> 100	8 ± 0.2	30.3 ± 12.6 µM	11.9 ± 1.8	–
O=C(O)Cc1csc(=NC(=O)C2CCN(S(=O)(=O)c3ccc(Cl)cc3)C2)n1O (stereo not drawn) [compound 35]	0.46 ± 0.01	> 100	9.2 ± 0.4	28.8 ± 8.9 µM	37.7 ± 0.9	–
O=C(O)CNC(=O)c1c(O)c2cc(F)ccc2n(CCC2CC2)c1=O [GSK360A, reference compound]	–	–	–	–	–	IC50 (FIH; [1]): > 100 µM
O=C(O)Cc1cs/c(=N\C(=O)CS(=O)(=O)Nc2ccccc2)n1O [compound 21]	0.36 ± 0.21	> 100	0.57 ± 0.18	0.76 ± 0.1 µM	2.8 ± 0.9	AspH inhibition potency relative to 4 (more potent) (AspH; IC50 comparison with compound 4): ~5 fold
O=C(O)Cc1cs/c(=N\C(=O)C2CCCN(S(=O)(=O)c3ccccc3)C2)n1O (stereo not drawn) [compound 27]	0.87 ± 0.04	> 100	11 ± 1.6	49.1 ± 1.7 µM	13.4 ± 1	–
C[C@@H]1CN(S(=O)(=O)c2ccccc2)C[C@H]1C(=O)/N=c1\scc(CC(=O)O)n1O (relative stereo) [compound 30]	1.7 ± 0.4	> 100	71.7 ± 26.6	> 100 µM	25.6 ± 0.6	–
O=C(O)Cc1csc(=NC(=O)C2CCN(S(=O)(=O)c3ccc(C(F)(F)F)cc3)C2)n1O (stereo not drawn) [compound 37]	0.47 ± 0.07	> 100	15.2 ± 3.6	36 ± 0.7 µM	63.2 ± 6.1	–
Cc1s/c(=N\C(=O)CS(=O)(=O)c2ccccc2)n(O)c1CC(=O)O [compound 7]	36.7 ± 4.9	> 100	–	24.3 ± 12.3 µM	> 100	reduction of FIH inhibition compared to 4 (FIH): > 100 fold

SMILES	IC50 (FIH) [µM]	IC50 (KDM4A) [µM]	IC50 (PHD2) [µM]	IC50 (AspH)	IC50 (JMJD5; read-out: JMJD5 IC50) [µM]	further results
O=C(O)Cc1cs/c(=N\C(=O)CS(=O)(=O)Cc2ccc3ccccc3c2)n1O [BNS, reference compound]	0.3 ± 0.07	67.4 ± 39.8	–	3.36 µM and 3.4 µM	0.25 ± 0.01	IC50 (PHD2; 0.15 μM PHD2 181–426, 10.0 μM 2OG, 5.0 μM HIF-1α CODD556–574, SPE-MS): 0.11 µM; increase in FIH inhibitory activity compared with other PHD inhibitors (FIH; as judged by IC50 comparison, ESI Table S1): > 50 fold; selectivity for FIH inhibition over PHD2 inhibition (FIH; as judged by IC50 values): ~0.4 fold
O=C(O)Cc1cs/c(=N\C(=O)CNC(=O)c2ccccc2)n1O [compound 16]	1.2 ± 0.2	> 100	–	2.4 ± 1.1 µM	1.7 ± 0.3	–
N#CCc1cs/c(=N\C(=O)CS(=O)(=O)c2ccccc2)n1O [compound 11]	> 100	> 100	> 100	> 100 µM	> 100	–
COC(=O)Cc1cs/c(=N\C(=O)CS(=O)(=O)c2ccccc2)n1O [compound 9]	> 100	> 100	> 100	96.7 ± 3.2 µM	> 100	–
O=C(O)CCc1cs/c(=N\C(=O)CS(=O)(=O)c2ccccc2)n1O [compound 13]	2.2 ± 0.6	> 100	–	47.3 ± 4.7 µM	> 100	reduction of FIH inhibition compared to 4 (FIH): ~10 fold
O=C(O)c1cnn(-c2nc3cc(OC(F)(F)F)c(Cl)cc3[nH]2)c1 [JNJ-42041935, reference compound]	–	–	–	–	–	IC50 (FIH; [1]): 56.4 ± 1.6 µM
O=C(O)Cc1cs/c(=N\C(=O)COc2ccccc2)n1O [compound 22]	0.75 ± 0.23	> 100	–	20.2 ± 6.6 µM	1.2 ± 0.2	–
O=C(O)Cc1csc(=NC(=O)C2CCN(S(=O)(=O)c3cccc(Cl)c3)C2)n1O (stereo not drawn) [compound 34]	0.44 ± 0.03	> 100	14.6 ± 3.2	35 µM	18.5 ± 1	–
O=C(O)Cc1cs/c(=N\C(=O)C2CCCN2S(=O)(=O)c2ccccc2)n1O (stereo not drawn) [compound 28]	2.1 ± 1.5	> 100	12.7 ± 1.8	24.9 ± 12 µM	2.6 ± 0.2	–
O=C(O)Cc1csc(NC(=O)CS(=O)(=O)c2ccccc2)n1 [compound 5]	> 100	> 100	> 100	> 100 µM	> 100	–
O=C(CS(=O)(=O)c1ccccc1)/N=c1\scc(Cn2ccnn2)n1O [compound 12]	> 100	> 100	> 100	83.3 ± 6.7 µM	> 100	–
CC(C(=O)O)c1cs/c(=N\C(=O)CS(=O)(=O)c2ccccc2)n1O (stereo not drawn) [compound 6]	61 ± 3.1	> 100	–	25.6 ± 12.7 µM	–	reduction of FIH inhibition compared to 4 (FIH): > 100 fold; IC50 (JMJD5): 60.5 ± 1 µM
O=C(O)Cc1cs/c(=N\C(=O)CCNS(=O)(=O)c2ccccc2)n1O [compound 20]	1 ± 0.1	> 100	6.5 ± 1.8	23.3 ± 10.1 µM	13.4 ± 6.5	reduction of FIH inhibition compared to 4 (FIH): ~3 fold; selectivity for FIH inhibition over JMJD5 inhibition (FIH; as judged by IC50 values): ~13 fold; selectivity for FIH inhibition over PHD2 inhibition (FIH; as judged by IC50 values): ~6 fold
O=C(O)Cc1cs/c(=N\C(=O)CNc2ccccc2)n1O [compound 23]	3.2 ± 1.1	71.6 ± 11.8	–	11.1 ± 0.4 µM	4.7 ± 1.1	–
O=C(O)Cc1csc(=NC(=O)C2CCN(S(=O)(=O)c3ccc4ccccc4c3)C2)n1O (stereo not drawn) [compound 40]	0.45 ± 0.08	> 100	5.2 ± 1.1	40.1 ± 2.2 µM	62.8 ± 0.4	–
COc1ccc(S(=O)(=O)N2CCC(C(=O)N=c3scc(CC(=O)O)n3O)C2)cc1 (stereo not drawn) [compound 36]	0.46 ± 0.01	> 100	9.8 ± 0.5	36.6 ± 2.8 µM	16 ± 6.8	–
O=C(CS(=O)(=O)c1ccccc1)/N=c1\sccn1O [compound 8]	> 100	> 100	> 100	> 100 µM	> 100	–
CC(=O)/N=c1\scc(CC(=O)O)n1O [compound 14]	52.4 ± 30.4	> 100	> 100	> 100 µM	3.2 ± 0.7	reduction of FIH inhibition compared to 4 (FIH): > 200 fold
CCOC(=O)Cc1cs/c(=N\C(=O)CS(=O)(=O)c2ccccc2)n1O [compound 3]	> 100	> 100	> 100	68 ± 26.8 µM	> 100	–
O=C(O)Cc1csc(=NC(=O)C2CCN(S(=O)(=O)c3cccs3)C2)n1O (stereo not drawn) [compound 41]	0.47 ± 0.07	> 100	11.2 ± 2.3	30.3 ± 8 µM	15.4 ± 7.1	–
